ChEMBL document CHEMBL5042543, “Bridged Piperidine Analogues of a High Affinity Naphthalene-Based P2Y14R Antagonist” (J Med Chem, 2022)
Values after ≈ are worked out from the molar mass of the structure shown. Active and inactive are the calls of the source. No cut-off for these calls is given here.

How the values were obtained:
[1] = target: Sodium-dependent serotonin transporter (Homo sapiens, UniProt P31645); experiment: Inhibition of SERT receptor (unknown origin) assessed as binding constant
Chain of Sodium-dependent serotonin transporter (P31645 whole entry): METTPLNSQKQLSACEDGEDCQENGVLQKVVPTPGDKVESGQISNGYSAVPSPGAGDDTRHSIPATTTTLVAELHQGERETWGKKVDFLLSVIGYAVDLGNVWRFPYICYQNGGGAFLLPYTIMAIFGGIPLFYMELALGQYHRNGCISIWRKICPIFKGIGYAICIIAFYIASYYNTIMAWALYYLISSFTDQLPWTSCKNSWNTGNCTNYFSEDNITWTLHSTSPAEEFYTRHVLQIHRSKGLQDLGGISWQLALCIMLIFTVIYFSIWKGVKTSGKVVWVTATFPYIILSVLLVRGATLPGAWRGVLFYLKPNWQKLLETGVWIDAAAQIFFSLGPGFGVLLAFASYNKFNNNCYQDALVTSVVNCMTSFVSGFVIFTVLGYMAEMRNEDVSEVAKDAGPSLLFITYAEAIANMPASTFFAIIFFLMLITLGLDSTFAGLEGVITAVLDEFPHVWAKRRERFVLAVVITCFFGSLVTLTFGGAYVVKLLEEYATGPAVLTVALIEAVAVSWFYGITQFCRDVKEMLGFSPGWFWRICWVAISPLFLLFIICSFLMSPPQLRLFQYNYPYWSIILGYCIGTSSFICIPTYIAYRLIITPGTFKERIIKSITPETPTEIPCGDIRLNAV

[2] = target: T1, Muscarinic acetylcholine receptor M1 (Homo sapiens, UniProt P11229); experiment: Inhibition of muscarinic M1 receptor (unknown origin) assessed as binding constant
T1 sequence (P11229 whole entry): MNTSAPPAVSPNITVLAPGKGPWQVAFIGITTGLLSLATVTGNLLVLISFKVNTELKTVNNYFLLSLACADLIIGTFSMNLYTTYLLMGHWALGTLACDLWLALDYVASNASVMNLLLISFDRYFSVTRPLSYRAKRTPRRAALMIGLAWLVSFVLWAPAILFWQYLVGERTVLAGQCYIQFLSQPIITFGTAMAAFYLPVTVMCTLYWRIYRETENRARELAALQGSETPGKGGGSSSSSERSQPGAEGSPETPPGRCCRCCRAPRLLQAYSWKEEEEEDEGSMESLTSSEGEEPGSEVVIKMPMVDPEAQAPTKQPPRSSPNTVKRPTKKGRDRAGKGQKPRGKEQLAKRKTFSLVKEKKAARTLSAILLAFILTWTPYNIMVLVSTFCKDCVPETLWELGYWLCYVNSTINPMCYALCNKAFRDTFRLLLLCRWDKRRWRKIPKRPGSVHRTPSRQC

[3] = Prodrug conversion in aqueous medium at pH 7.4 assessed as conversion of 4-(4-((1S,4S,5S)-2-(Ethoxycarbonyl)-2-azabicyclo[2.2.1]heptan-5-yl)phenyl)-7-(4-(trifluoro-methyl)phenyl)-2-naphthoic acid at 72 hrs by HPLC analysis; format: ADME; conditions: buffer, pH 7.4, 72 h
[4] = Plasma protein binding in rat assessed as compound remaining at 5 hrs; format: ADME, cell-free
liver carboxylesterase = target: T2, liver carboxylesterase (Sus scrofa, UniProt Q29550); experiment: Stability of the compound in aqueous medium at pH 7.4 assessed as half life in presence of porcine liver esterase; format: physicochemical; conditions: pig
T2 sequence (Q29550 whole entry): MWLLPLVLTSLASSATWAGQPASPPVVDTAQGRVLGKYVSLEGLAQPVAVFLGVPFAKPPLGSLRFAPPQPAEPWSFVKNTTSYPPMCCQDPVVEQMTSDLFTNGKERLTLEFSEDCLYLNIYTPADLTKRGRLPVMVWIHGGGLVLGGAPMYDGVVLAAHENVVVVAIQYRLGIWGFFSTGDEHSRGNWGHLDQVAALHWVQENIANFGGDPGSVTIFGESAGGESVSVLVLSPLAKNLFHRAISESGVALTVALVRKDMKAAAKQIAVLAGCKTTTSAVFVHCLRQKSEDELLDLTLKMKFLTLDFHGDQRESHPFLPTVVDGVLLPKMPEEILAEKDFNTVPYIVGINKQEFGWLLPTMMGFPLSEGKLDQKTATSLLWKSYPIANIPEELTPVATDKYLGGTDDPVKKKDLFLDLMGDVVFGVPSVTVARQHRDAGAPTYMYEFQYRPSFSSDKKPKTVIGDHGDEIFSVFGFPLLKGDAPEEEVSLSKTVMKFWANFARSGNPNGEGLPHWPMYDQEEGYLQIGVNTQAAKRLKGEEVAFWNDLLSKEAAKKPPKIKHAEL

[5] = target: Sigma intracellular receptor 2 (Homo sapiens, UniProt Q5BJF2); experiment: Inhibition of sigma 2 receptor (unknown origin) assessed as binding constant
Chain of Sigma intracellular receptor 2 (Q5BJF2 whole entry): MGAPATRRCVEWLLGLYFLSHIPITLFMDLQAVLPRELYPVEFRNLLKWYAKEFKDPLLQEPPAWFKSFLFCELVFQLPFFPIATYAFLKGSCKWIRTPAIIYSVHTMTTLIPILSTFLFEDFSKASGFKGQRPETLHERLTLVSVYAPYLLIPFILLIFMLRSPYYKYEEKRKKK

[6] = Plasma protein binding in human assessed as bound fraction; format: ADME, cell-free
[7] = Plasma protein binding in mouse assessed as compound remaining at 5 hrs; format: ADME, cell-free
Mus musculus [8] = experiment: Antiinflammatory activity in C57BL/6J mouse model of ovalbumin/Aspergillus-induced allergic asthma assessed as reduction in eosinophil counts in BALF at 10 mg/kg, ip administered 30 mins prior to allergen challenge and measured after 16 days; format: functional, organism-based; conditions: time 16.0 day
Mus musculus [9] = experiment: Reversal of CCI-induced mechano-allodynia in Hsd:ICR (CD-1) mouse model of neuropathic pain at 10 micromol/kg, ip measured after 5 hrs; format: functional, organism-based; conditions: dose 10.0 µmol/kg
Mus musculus [10] = experiment: Antiinflammatory activity in C57BL/6J mouse model of ovalbumin/Aspergillus-induced allergic asthma assessed as reduction in macrophage counts in BALF at 10 mg/kg, ip administered 30 mins prior to allergen challenge and measured after 16 days; format: functional, organism-based; conditions: time 16.0 day
Mus musculus [11] = experiment: Antiinflammatory activity in C57BL/6J mouse model of ovalbumin/Aspergillus-induced allergic asthma assessed as reduction in allergic inflammation at 10 mg/kg, ip administered 30 mins prior to allergen challenge and measured after 16 days; format: functional, organism-based; conditions: time 16.0 day
Mus musculus [12] = experiment: Reversal of CCI-induced mechano-allodynia in Hsd:ICR (CD-1) mouse model of neuropathic pain at 10 micromol/kg, ip measured after 3 hrs; format: functional, organism-based; conditions: dose 10.0 µmol/kg
Mus musculus [13] = experiment: Antiinflammatory activity in C57BL/6J mouse model of ovalbumin/Aspergillus-induced allergic asthma assessed as reduction in neutrophil counts in BALF at 10 mg/kg, ip administered 30 mins prior to allergen challenge and measured after 16 days; format: functional, organism-based; conditions: time 16.0 day
[14] = Stability in mouse plasma assessed as compound remaining after 120 mins; format: ADME, cell-free; conditions: 2 h
[15] = Half life in Wistar rat at 1 mg/kg, ip; format: ADME, organism-based; conditions: in vivo
[16] = Stability in rat liver microsomes assessed as half life; format: ADME, Microsome
[17] = Half life in Wistar rat at 0.5 mg/kg, iv; format: ADME, organism-based; conditions: in vivo
[18] = Stability of the compound in simulated intestinal fluid assessed as parent compound remaining at 120 mins; format: ADME; conditions: simulated gi fluid, 2 h
[19] = Plasma protein binding in mouse assessed as bound fraction; format: ADME, cell-free
[20] = Stability in mouse liver microsomes assessed as half life; format: ADME, Microsome
[21] = Plasma protein binding in rat assessed as bound fraction; format: ADME, cell-free
[22] = Stability in rat plasma assessed as compound remaining after 120 mins; format: ADME, cell-free; conditions: 2 h
[23] = Stability in human liver microsomes assessed as half life; format: ADME, Microsome
[24] = Stability of the compound in simulated gastric fluid assessed as parent compound remaining at 120 mins by NMR analysis; format: ADME; conditions: simulated gi fluid, 2 h
HepG2 = experiment: Cytotoxicity against human HepG2 cells; format: toxicity, cell-based
[25] = Distribution coefficient, logD of compound at pH 7.4 by HPLC analysis; format: physicochemical; conditions: octanol/water
[26] = Aqueous solubility of the compound at pH 4; conditions: buffer
[27] = Toxicity in Hsd:ICR (CD-1) mouse at 10 micromol/kg, ip; conditions: in vivo, dose 10 µmol/kg
Mus musculus [28] = experiment: Antiinflammatory activity in C57BL/6J mouse model of ovalbumin/Aspergillus-induced allergic asthma assessed as reduction in recruitment of lymphocytes into airway at 10 mg/kg, ip administered 30 mins prior to allergen challenge and measured after 16 days; format: functional, organism-based; conditions: time 16.0 day
Mus musculus [29] = experiment: Antiinflammatory activity in C57BL/6J mouse model of ovalbumin/Aspergillus-induced allergic asthma assessed as reduction in recruitment of neutrophils into airway at 10 mg/kg, ip administered 30 mins prior to allergen challenge and measured after 16 days; format: functional, organism-based; conditions: time 16.0 day
Mus musculus [30] = experiment: Antiinflammatory activity in C57BL/6J mouse model of ovalbumin/Aspergillus-induced allergic asthma assessed as reduction in recruitment of eosinophils into airway at 10 mg/kg, ip administered 30 mins prior to allergen challenge and measured after 16 days; format: functional, organism-based; conditions: time 16.0 day
Mus musculus [31] = experiment: Antiinflammatory activity in C57BL/6J mouse model of ovalbumin/Aspergillus-induced allergic asthma assessed as reduction in recruitment of immune cells into lungs at 10 mg/kg, ip administered 30 mins prior to allergen challenge and measured after 16 days; format: functional, organism-based; conditions: time 16.0 day
[32] = target: Kappa-type opioid receptor (Homo sapiens, UniProt P41145); experiment: Inhibition of KOR (unknown origin) assessed as binding constant
Chain of Kappa-type opioid receptor (P41145 whole entry): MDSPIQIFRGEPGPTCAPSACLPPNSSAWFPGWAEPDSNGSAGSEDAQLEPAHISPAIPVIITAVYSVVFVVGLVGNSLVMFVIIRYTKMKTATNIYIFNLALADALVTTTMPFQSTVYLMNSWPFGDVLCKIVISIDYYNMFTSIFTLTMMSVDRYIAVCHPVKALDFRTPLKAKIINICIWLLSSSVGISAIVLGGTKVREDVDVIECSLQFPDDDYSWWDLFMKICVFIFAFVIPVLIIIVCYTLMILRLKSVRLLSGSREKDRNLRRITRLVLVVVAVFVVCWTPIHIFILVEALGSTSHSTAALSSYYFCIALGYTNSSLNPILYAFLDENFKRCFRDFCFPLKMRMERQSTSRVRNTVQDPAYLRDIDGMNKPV

Row | Structure (SMILES) | Drug metabolism [3] [%] | half-life (liver carboxylesterase) [h] | Ki [5] [µM] | PPB [6] [%] | Stability [14] [%] | half-life [15] [h] | t1/2 [16] [h] | half-life [17] [h] | Stability [18] [%] | PPB [19] [%] | t1/2 [20] [h] | PPB [21] [%] | Stability [22] [%] | t1/2 [23] [h] | Stability [24] [%] | IC50 (HepG2) [µM] | logD ([25]; read-out: logD) | other results
1 | CN(C)C(=O)COC(=O)c1cc(-c2ccc([C@H]3C[C@H]4C[C@@H]3CN4)cc2)c2ccc(-c3ccc(C(F)(F)F)cc3)cc2c1 | 59 | > 72 | 0.39 | 99.7 | – | – | – | – | – | – | – | – | – | – | – | – | – | Ki [1]: > 1 µM; Ki [2]: > 1 µM; Fu [4]: 0.72%; Fu [7]: 0%
2 | O=C(O)c1cc(-c2ccc([C@H]3C[C@H]4C[C@@H]3CN4)cc2)c2ccc(-c3ccc(C(F)(F)F)cc3)cc2c1 [listing 1 of 2 here] | – | – | – | – | – | – | – | – | – | – | – | – | – | – | – | – | – | Activity (Mus musculus [8]): Active; Activity (Mus musculus [9]): inactive; Activity (Mus musculus [10]): inactive; Activity (Mus musculus [11]): Active; Activity (Mus musculus [12]): Active; Activity (Mus musculus [13]): Active
3 | O=C(O)c1cc(-c2ccc([C@H]3C[C@H]4C[C@@H]3CN4)cc2)c2ccc(-c3ccc(C(F)(F)F)cc3)cc2c1 [listing 2 of 2 here] | – | – | 0.71 | 87.98 | 100 | 8.94 | 1.52 | 7.24 | 99.1 | 99.76 | 4.05 | 99.79 | 82.8 | 4.67 | 100 | 11 | – | logD [25]: 1.9; solubility [26]: 1.22 µg/mL (≈ 2.5 µM); Activity [27]: Non-Toxic
4 | CCOC(=O)N1C[C@H]2C[C@@H]1C[C@@H]2c1ccc(-c2cc(C(=O)OCC(=O)N(C)C)cc3cc(-c4ccc(C(F)(F)F)cc4)ccc23)cc1 | 3 | > 72 | – | – | – | – | – | – | – | – | – | – | – | – | – | – | 6 | Activity (Mus musculus [28]): Active; Activity (Mus musculus [29]): Active; Activity (Mus musculus [30]): Active
5 | O=C(O)c1cc(-c2ccc([C@@H]3C[C@@H]4C[C@H]3NC4=O)cc2)c2ccc(-c3ccc(C(F)(F)F)cc3)cc2c1 | – | – | 2.1 | 98.89 | 74.1 | 4.59 | 1.49 | 2.11 | 100 | 99.74 | > 16.67 | 96.18 | 74.7 | 12.5 | 59.3 | 9.34 | – | Activity (Mus musculus [31]): Active
6 | O=C(O)c1cc(-c2ccc(C3CCNC3)cc2)c2ccc(-c3ccc(C(F)(F)F)cc3)cc2c1 (racemic) | – | – | 1.2 | – | – | – | – | – | – | – | – | – | – | – | – | – | 1.9 | Ki [32]: > 1 µM
